Where two headings read alike, the source gives them in different places.
What was measured:
Cannabinoid CB1 Receptor = target: T1, Cannabinoid CB1 Receptor (Homo sapiens, UniProt P21554); assay: Binding assay for CB1 agonists or inverse agonists (radioligand competition, membranes of transfected SK-N-MC cells)
T1 construct: expressed in transfected cells

Cannabinoid CB2 Receptor = target: T2, Cannabinoid CB2 Receptor (Homo sapiens, UniProt P34972); assay: Binding assay for CB2 agonists or inverse agonists (radioligand competition, membranes of transfected SK-N-MC cells); conditions: read-out: Cannabinoid CB2 Receptor Binding percent inhibition
T2 construct: expressed in transfected cells

CB1 receptor (human) = CB1 receptor (human) (Homo sapiens, UniProt P21554); assay: cell-based
[1] = test concentration of 0.2 μM, compounds without an IC50 binding value

T2 sequence (P34972 whole entry): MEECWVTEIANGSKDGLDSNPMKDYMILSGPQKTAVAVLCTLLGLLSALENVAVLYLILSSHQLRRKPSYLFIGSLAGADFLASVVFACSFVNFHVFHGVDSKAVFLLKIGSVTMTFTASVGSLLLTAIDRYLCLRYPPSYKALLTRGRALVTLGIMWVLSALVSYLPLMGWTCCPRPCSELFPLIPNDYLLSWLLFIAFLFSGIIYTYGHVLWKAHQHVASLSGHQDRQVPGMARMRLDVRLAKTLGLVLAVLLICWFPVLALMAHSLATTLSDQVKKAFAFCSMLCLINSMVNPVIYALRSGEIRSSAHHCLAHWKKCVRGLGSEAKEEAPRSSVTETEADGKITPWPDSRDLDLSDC
Sequence of CB1 receptor (human) (P21554 whole entry): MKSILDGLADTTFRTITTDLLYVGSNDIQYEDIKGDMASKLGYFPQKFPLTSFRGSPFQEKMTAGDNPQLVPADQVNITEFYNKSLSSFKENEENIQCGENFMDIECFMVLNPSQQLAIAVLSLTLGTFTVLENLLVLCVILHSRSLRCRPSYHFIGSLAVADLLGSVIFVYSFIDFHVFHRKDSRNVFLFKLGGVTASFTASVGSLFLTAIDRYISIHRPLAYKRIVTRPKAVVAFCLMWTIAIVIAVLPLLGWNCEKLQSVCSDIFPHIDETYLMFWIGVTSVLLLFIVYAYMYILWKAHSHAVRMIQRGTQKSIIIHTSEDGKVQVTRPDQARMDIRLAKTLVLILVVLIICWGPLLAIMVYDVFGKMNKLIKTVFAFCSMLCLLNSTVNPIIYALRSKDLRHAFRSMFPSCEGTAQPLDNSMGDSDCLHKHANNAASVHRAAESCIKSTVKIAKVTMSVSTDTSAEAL
T1 sequence (P21554 whole entry): as above

COc1ccc(/C=C2\CN(C(C)=O)Cc3c(C(=O)NN4CCCCC4)nn(-c4ccc(Cl)cc4Cl)c32)cc1 [Cpd 54, (7E)-5-acetyl-1-(2,4-dichloro-phenyl)-7-(4-methoxy-benzylidene)-4,5,6,7-tetrahydro-1H-pyrazolo[4,3-c]pyridine-3-carboxylic acid piperidin-1-ylamide]
IC50 (Cannabinoid CB1 Receptor): 40 nM
inhibition at 0.2 µM (Cannabinoid CB2 Receptor): 24%
EC50 (CB1 receptor (human)): 5 nM

COC(=O)N1C/C(=C\c2ccc(OC)cc2)c2c(c(C(=O)NN3CCCCC3)nn2-c2ccc(Cl)cc2Cl)C1 [Cpd 55, (7E)-1-(2,4-dichloro-phenyl)-7-(4-methoxy-benzylidene)-3-(piperidin-1-ylcarbamoyl)-1,4,6,7-tetrahydro-pyrazolo[4,3-c]pyridine-5-carboxylic acid methyl ester]
IC50 (Cannabinoid CB1 Receptor): 5 nM
inhibition at 0.2 µM (Cannabinoid CB2 Receptor): 66%
EC50 (CB1 receptor (human)): 2 nM

CCNC(=O)N1C/C(=C\c2ccc(OC)cc2)c2c(c(C(=O)NN3CCCCC3)nn2-c2ccc(Cl)cc2Cl)C1 [Cpd 56, (7E)-1-(2,4-dichloro-phenyl)-7-(4-methoxy-benzylidene)-1,4,6,7-tetrahydro-pyrazolo[4,3-c]pyridine-3,5-dicarboxylic acid 5-ethylamide 3-piperidin-1-ylamide]
IC50 (Cannabinoid CB1 Receptor): 20 nM
inhibition at 0.2 µM (Cannabinoid CB2 Receptor): 28%
EC50 (CB1 receptor (human)): 7 nM

C[C@@H](NC(=O)c1nn(-c2ccc(Cl)cc2)c2c1CN(C(=O)OC(C)(C)C)C/C2=C\c1ccc(F)cc1)c1ccccc1 [Cpd 57, (7E)-1-(4-chloro-phenyl)-7-(4-fluoro-benzylidene)-3-[(1R)-1-phenyl-ethylcarbamoyl]-1,4,6,7-tetrahydro-pyrazolo[4,3-c]pyridine-5-carboxylic acid tert-butyl ester]
IC50 (Cannabinoid CB1 Receptor): 30 nM
inhibition at 0.2 µM (Cannabinoid CB2 Receptor; [1]): 13%
EC50 (CB1 receptor (human)): 20 nM

COc1ccc(/C=C2\CN(S(=O)(=O)N(C)C)Cc3c(C(=O)NN4CCCCC4)nn(-c4ccc(Cl)cc4Cl)c32)cc1 [Cpd 58, (7E)-1-(2,4-dichloro-phenyl)-5-dimethylsulfamoyl-7-(4-methoxy-benzylidene)-4,5,6,7-tetrahydro-1H-pyrazolo[4,3-c]pyridine-3-carboxylic acid piperidin-1-ylamide]
IC50 (Cannabinoid CB1 Receptor): 20 nM
inhibition at 0.2 µM (Cannabinoid CB2 Receptor): 53%
EC50 (CB1 receptor (human)): 3 nM

CCOC(=O)CN1C/C(=C\c2ccc(OC)cc2)c2c(c(C(=O)NN3CCCCC3)nn2-c2ccc(Cl)cc2Cl)C1 [Cpd 59, (7E)-[1-(2,4-dichloro-phenyl)-7-(4-methoxy-benzylidene)-3-(piperidin-1-ylcarbamoyl)-1,4,6,7-tetrahydro-pyrazolo[4,3-c]pyridin-5-yl]-acetic acid ethyl ester]
IC50 (Cannabinoid CB1 Receptor): 40 nM
inhibition at 0.2 µM (Cannabinoid CB2 Receptor): 23%
EC50 (CB1 receptor (human)): 30 nM

COc1ccc(/C=C2\CN(C(C)=O)Cc3c(C(=O)NC(C)c4ccccn4)nn(-c4ccc(Cl)cc4Cl)c32)cc1 (stereo not drawn) [Cpd 60, (7E)-5-acetyl-1-(2,4-dichloro-phenyl)-7-(4-methoxy-benzylidene)-4,5,6,7-tetrahydro-1H-pyrazolo[4,3-c]pyridine-3-carboxylic acid (1-pyridin-2-yl-ethyl)-amide]
IC50 (Cannabinoid CB1 Receptor): 20 nM
inhibition at 0.2 µM (Cannabinoid CB2 Receptor; [1]): 28%
EC50 (CB1 receptor (human)): 7 nM

CCNC(=O)N1C/C(=C\c2ccc(OC)cc2)c2c(c(C(=O)NC(C)c3ccccn3)nn2-c2ccc(Cl)cc2Cl)C1 (stereo not drawn) [Cpd 61, (7E)-1-(2,4-dichloro-phenyl)-7-(4-methoxy-benzylidene)-1,4,6,7-tetrahydro-pyrazolo[4,3-c]pyridine-3,5-dicarboxylic acid 5-ethylamide 3-[(1-pyridin-2-yl-ethyl)-amide]]
IC50 (Cannabinoid CB1 Receptor): 20 nM
inhibition at 0.2 µM (Cannabinoid CB2 Receptor): 7%
EC50 (CB1 receptor (human)): 5 nM

COC(=O)N1C/C(=C\c2ccc(OC)cc2)c2c(c(C(=O)NC(C)c3ccccn3)nn2-c2ccc(Cl)cc2Cl)C1 (stereo not drawn) [Cpd 62, (7E)-1-(2,4-dichloro-phenyl)-7-(4-methoxy-benzylidene)-3-(1-pyridin-2-yl-ethylcarbamoyl)-1,4,6,7-tetrahydro-pyrazolo[4,3-c]pyridine-5-carboxylic acid methyl ester]
IC50 (Cannabinoid CB1 Receptor): 5 nM
inhibition at 0.2 µM (Cannabinoid CB2 Receptor): 70%
EC50 (CB1 receptor (human)): 2 nM
